Reference: patent US20090131437A1, “DISUBSTITUTED UREAS AS KINASE INHIBITORS” (CORIUM INTERNATIONAL, INC., priority 2005, published 2009)

Compound | melting point [°C]
CC(C)(C)c1cc(NC(=O)Nc2ccc(Oc3cc(N)ncn3)cc2F)n(-c2ccc(F)cc2)n1 [Example 14, 1-[4-(6-Amino-pyrimidin-4-yloxy)-2-fluoro-phenyl]-3-[5-tert-butyl-2-(4-fluoro-phenyl]-2H-pyrazol-3-yl]-urea] | 141 to 142
CNc1cc(Oc2ccc(NC(=O)Nc3cc(C(C)(C)C)nn3-c3cccc(C(=O)N4CCN(C)CC4)c3)cc2)ncn1 [Example 15, 1-{5-tert-Butyl-2-[3-(4-methyl-piperazine-1-carbonyl)-phenyl]-2H-pyrazol-3-yl}-3-[4-(6-methylamino-pyrimidin-4-yloxy)-phenyl]-urea] | 146 to 147
